This is an account of results in patent publication US20080039410A1, “Inositol 1,4,5-Trisphosphate Receptor Mutants and Uses Thereof” (priority 2004, published 2008).

Experiment [1] deals with S2+ InsP3R-1. Nature of the experiment: Potentiation of CCh-induced Ca2+ release after PKG activation (8-Br cGMP), S2+ InsP3R-1 constructs in DT-40 3ko cells. The conditions noted are these: 30 min pretreatment, cells expressing S2+ InsP3R-1. Format: cell-based, rat. Here is the method:
(§1) Transfected DT-40 3ko cells were washed once in a HEPES-buffered physiological saline solution (HEPES-PSS) containing (in mM) 5.5 glucose, 137 NaCl, 0.56 MgCl2, 4.7 KCl, 1 Na2HPO4, 10 HEPES (pH 7.4), 1.2 CaCl2 and 1% w/v Bovine Serum Albumin. Cells were then resuspended in BSA HEPES-PSS with 1 μM Fura-2 (AM), placed on a 15 mm glass coverslip in a low volume perfusion chamber (Warner Instruments) and allowed to adhere for 30 minutes at room temperature. Cells were perfused continually for 10 minutes with HEPES-PSS before experimentation to allow Fura-2 de-esterification. A field of cells for each experiment was chosen that contained a wide range of transfection efficiency based upon the intensity of red fluorescence emitted when excited at 560 nm. [Ca^2+]i imaging was performed essentially as previously described using an inverted epifluorescence Nikon microscope with a 40× oil immersion objective lens (numerical aperture, 1.3). Cells were excited alternately with light at 340 and 380 nm (±10 mn bandpass filters, Chroma) using a monochrometer (TILL Photonics). Fluorescence images were captured and digitized with a digital camera driven by TILL Photonics software. Images were captured every 2 seconds with an exposure of 35 ms and no binning. 340/380 ratio images were calculated online and stored immediately to hard disk.
(§2) The effects of treatment were determined by normalizing the peak change in fluorescence ratio by stimulation following forskolin or 8-Br cGMP exposure to that of stimulation in control HEPES-PSS. Thus, pooled data represents a normalized fold increase over control for the treated trial. Two tailed heteroscedastic t-tests with P values<0.05 were considered to have statistical significance.
Similar experiments were performed to assess the effects on Ca^2+ release of phosphorylating InsP3R-1 with PKG. Cells transfected with S2^+ InsP3R-1 together with M3 receptor and HcRed were stimulated with low, threshold concentrations of CCh (25-50 nM) followed by a 10 min treatment with 10 μM 8-Br cGMP, a specific activator of PKG [48]. […] In a similar fashion to PKA activation, this was manifested as an increase in the CCh-induced initial peak (FIG. 4A and pooled data FIG. 4E).
The effects of treatment were determined by normalizing the peak change in fluorescence ratio by stimulation following forskolin or 8-Br-cGMP exposure to that of stimulation in control HEPES-PSS. Thus, pooled data represent a normalized fold increase over control for the treated trial. In all cases where statistical significance is indicated, two-tailed heteroscedastic t tests were performed. P values<0.05 were considered to indicate statistical significance and are denoted by an asterisk in the figures.
Despite these differences, experiments were performed to define further the phosphorylation sites important for regulation of Ca^2+ release by PKG. […] In contrast, in cells expressing S2+SE no effect on CCh-induced Ca^2+ release following activation of PKG was observed (FIG. 23C and pooled data in FIG. 23D).

For experiment [2], the system named is S2+ InsP3R-1. Nature of the experiment: Potentiation of CCh-induced Ca2+ release after PKA activation (forskolin), S2+ InsP3R-1 constructs in DT-40 3ko cells. The format is cell-based, rat. The conditions noted are these: 30 min pretreatment, cells expressing S2+ InsP3R-1. How it is done: DT-40 cells lacking all three InsP3 receptor subtypes DT-40 3ko were transfected using electroporation, 350 V and 950 μF. 2×10^7 cells were co-transfected with 25 μg of the InsP3R cDNA, 25 μg of the muscarinic type 3 (M3) receptor, and 4 μg of the red fluorescent protein plasmid pHcRed1-N1. Cells were incubated with DNA in 500 μL of Optimem media on ice for 10 minutes. The cell/DNA mixture was electroporated, incubated on ice for 30 minutes, brought up to 5 ml with Optimem and placed in a 5% C02 incubator at 39° C. for 5 hours. The cells were then centrifuged and resuspended in 12 ml of complete RPMI media. Transfection efficiency was typically ˜20%. Experiments were performed within 32 hours of transfection.
as §1, §2
Experiments were performed in DT-40 3ko cells transfected with S2^+ InsP3R-1. Since there are no reports of Gαq coupled receptors expressed in DT-40 cells, initial experiments were performed eliciting [Ca^2+]i changes by stimulating the endogenous B cell receptor with α-IgM antibody. […] Thus, in all further experiments, DT-40 3ko cells were co-transfected with the M3 receptor, and HcRed to facilitate identification of transfected cells (inset FIG. 1). Stimulation of M3 receptors with the muscarinic agonist carbachol (CCh), provided a convenient means of stimulating [Ca^2+]i changes, presumably through Gαq-induced activation of phospholipase C and production of InsP3. […] The potentiation was most marked when threshold elevations in [Ca^2+]i were evoked by the initial exposure to CCh and therefore only cells in which the initial CCh treatment evoked a Δ 340/380 ratio of<0.2 ratio units were included for analysis. […] [Ca^2+]i changes were never evoked by CCh treatment in cells transfected with only M3 cDNA in the absence of InsP3R or likewise InsP3R with no M3 cDNA.
The effects of treatment were determined by normalizing the peak change in fluorescence ratio by stimulation following forskolin or 8-Br-cGMP exposure to that of stimulation in control HEPES-PSS. Thus, pooled data represent a normalized fold increase over control for the treated trial. In all cases where statistical significance is indicated, two-tailed heteroscedastic t tests were performed. […]

The subject of the next experiment is InsP3R-III. Nature of the experiment: PKA stimulation of Ca2+ signals in DT-40 3ko cells transfected with rat InsP3R-III. Format: cell-based.

Where no end group is shown, it is not given here. The star is where a group is joined. Myristoyl = CCCCCCCCCCCCCC(=O)*

For “PKI: cell-permeable PKA inhibitor, myristolyated PKI (Myristoyl-SGRTGRRNA; UniProt P61925 14-22, looked up, fragment) [reference compound]”, the “effect of PKI on 8-Br cGMP-induced enhancement of Ca^2+ release” value with S2+ InsP3R-1 [1] is given as “does not affect”; with S2+ InsP3R-1 [1] (listed as myristolyated PKI), “did not alter”. Moreover, the figures for the “effect of PKI on forskolin-induced enhancement of Ca^2+ release” value in the experiment on S2+ InsP3R-1 [2] and in the experiment with S2+ InsP3R-1 [2] (listed as myristolyated PKI) were “completely abolishes” and “completely abolished”, respectively.
For “rat InsP3R-III: rat type 3 InsP3 receptor transfected into DT-40 3ko cells”, the “effect of stimulating PKA on Ca^2+ signals” value in the experiment on InsP3R-III is “inhibited”.
